The results in this text go back to PubChem BioAssay AID504322 (Emory University Molecular Libraries Screening Center, 2011).

The source made the active and inactive calls. How the calls were made is not given here.

The subject of the experiment is CHOP reporter cell assay, percent of control. The experiment is described as follows: CHOP reporter inhibitor potency, dose response, cell-based (AID 504322).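 Further: CHO cells carrying a CHOP reporter stimulated with tunicamycin to induce ER stress; potency is for inhibition of the stress-induced reporter signal.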
In the case of `CC1C/C(=C/c2ccccn2)C(=O)/C(=C/c2ccccn2)C1` (centres undefined), the IC50 was 2.49 µM.
`C[C@H](NC(=O)c1nc[nH]c1C(=O)N[C@@H](Cc1ccccc1)C(=O)OC(C)(C)C)C(=O)OC(C)(C)C`: the IC50 is 5.25 µM (inactive).
As to `CN1CCc2c(sc(NC(=O)c3cc4cc([N+](=O)[O-])ccc4s3)c2C(N)=O)C1`, the IC50 was 4.6 µM.
Take `CC(C)Cn1c(=O)[nH]c(=O)c2c(C(F)(F)F)cc(-c3ccccc3)nc21`: the IC50 was > 10 µM (inactive).
On to `Cc1c(CN2CCC(CO)(CCOc3ccccc3)CC2)[nH]c2c(Cl)cccc12`, for which the IC50 is 9.13 µM (inactive).
The figure for `Cc1ccc(C)c(NC(=S)NC(NC(=O)/C=C/c2ccccc2)C(Cl)(Cl)Cl)c1` (centres undefined) is 9.63 µM (inactive).
As to `Cc1ccc(C)c(OCc2ccc(C(=O)N3N=C(C(F)F)CC3(O)C(F)F)o2)c1` (centres undefined), the IC50 was 2.89 µM.
For `Cc1ccc(-c2nn(-c3ccccc3)cc2/C=N/NC(=O)c2ccc(Br)o2)cc1`, the IC50 was 5.04 µM.
The figure for `COc1ccccc1-c1cc(C(F)(F)F)nc(S(=O)(=O)CCCC(=O)Nc2cccnc2Cl)n1` is > 10 µM (inactive).
Regarding `O/N=C(\c1ccc(Cl)cc1Cl)c1ncc(C(F)(F)F)cc1Cl`, the IC50 was 2.2 µM (inactive).
The figure for `CN(C)c1ccc(/C=C2\SC(=O)N(CCc3nnc(N)s3)C2=O)cc1` is 9.8 µM (inactive); for `CCC(C)(C)NC(=O)C(c1cccn1C)N(C(=O)Cn1nnc2ccccc21)c1ccc(F)cc1` (centres undefined) it is > 10 µM (inactive).
With `Cc1cc(-c2[nH]nc3c2C(c2ccc(Cl)cc2)C(C#N)=C(N)O3)c(C)s1` (centres undefined), the IC50 was 7.25 µM (inactive).
Consider `COC(=O)/C(=C(/F)Sc1cc(C)c(O)c(C)c1)C(F)(F)F`, for which the IC50 was 9.36 µM (inactive).
The figure for `CCN1C/C(=C/c2ccc(OC)c(O)c2)C(=O)/C(=C/c2ccc(OC)c(O)c2)C1` is 5.33 µM (inactive); for `CC(=O)OCC1O[C@@H](O[C@@H]2C[C@H]3C(C)(C)[C@H](OC(C)=O)CC[C@]3(C)[C@H]3CC[C@]45C[C@]4(CC[C@H]5[C@@H](C)C[C@@H](O)[C@H](O)C(C)(C)O)[C@@]32C)[C@H](O)[C@@H](O)[C@@H]1O` (some centres undefined) it is 5.96 µM (inactive); for `C/C(=C\c1ccco1)C1C(C#N)=C(N)Oc2n[nH]c(-c3ccc(C)cc3)c21` (centres undefined) it is > 10 µM (inactive).
Consider `Cc1ccccc1Oc1cc(-n2ncc(Cl)c(Cl)c2=O)ncn1`, for which the IC50 was 2.08 µM.
The figure for `CCCCn1c(N2CCC(Cc3ccccc3)CC2)nc2c1c(=O)[nH]c(=O)n2C` is 6.06 µM (inactive); for `O=C(CN1CCN(c2ncc(C(F)(F)F)cc2Cl)CC1)NCCNc1ncc(C(F)(F)F)cc1Cl` it is 3.88 µM.
Regarding `CCCOC(=O)c1ccc(Oc2cn[nH]c2-c2ccc(OCC)cc2O)cc1`, the IC50 is 9.56 µM (inactive).
As to `CCCCCc1c(C)nc(Nc2ccccc2)[nH]c1=O`, the IC50 is 9.72 µM (inactive).
Consider `CC(C)(C)c1ccc(CN2N=Nc3ccccc3S2(=O)=O)cc1`, for which the IC50 is 9.3 µM (inactive).
Take `O=S(=O)(N/N=C/c1ccc(Cl)cc1)c1ccc(Cc2ncc(C(F)(F)F)cc2Cl)s1`: the IC50 was 6.37 µM (inactive).
With `CS(=O)(=O)c1ccc(S(=O)CC(=O)OCc2ccccc2)c([N+](=O)[O-])c1` (centres undefined), the IC50 was > 10 µM (inactive).
Take `Nc1ccc(SC(F)(F)F)cc1C(=O)c1ccccc1`: the IC50 is 4.97 µM.
Regarding `CCOC(=O)c1c(NC(=O)Cc2cccs2)sc(C(=O)NC2CCCCC2)c1C`, the IC50 is 2.99 µM.
As for `CCOc1cc(C)c(-c2onc(C(F)(F)F)c2-c2csc(C)n2)c(O)c1`, the IC50 is > 10 µM (inactive).
As for `Cc1ccc(-c2nn(CC(=O)NCc3cc(-c4nn(C)c(=O)c5ccccc45)ccc3C)c(=O)c3ccccc23)cc1`, the IC50 is 9.88 µM (inactive).
As to `O=c1c(Cl)nc2cc(Cl)ccc2n1CCNc1ncc(C(F)(F)F)cc1Cl`, the IC50 is 2.49 µM.
Consider `CCOc1ccc(N=Cc2c(O)n(C(C)(C)C)c(=O)[nH]c2=O)cc1`, for which the IC50 is 9.2 µM (inactive).
On to `COc1ccc(Cn2c(SCc3ccccc3C)nc3cc(OC)c(OC)cc3c2=N)cc1`, for which the IC50 was 8.86 µM (inactive).
For the compound `Cc1ccc(NC(=S)NC(NC(=O)Cc2cccc3ccccc23)C(Cl)(Cl)Cl)cc1` (centres undefined), the IC50 was > 10 µM (inactive).
The figure for `C=CCSc1nc2ccccc2n1C(=O)/C=C/c1cc(OC)c(OC)c(OC)c1` is 4.16 µM; for `CC(C)c1ccccc1NC(=O)Cn1c(/C=C/c2ccccc2)nc2ccccc21` it is 5.88 µM (inactive).
Consider `Cc1ccc(-c2nc(N)sc2-c2ccc(C)cc2)cc1`, for which the IC50 is 9.83 µM (inactive).
Regarding `CC(C)(C)C1CCC(C(=O)OCC(=O)c2ccc[nH]2)CC1` (centres undefined), the IC50 was 6.04 µM (inactive).
The figure for `CCCCCCn1c(SCCC)nc2c1c(=O)[nH]c(=O)n2C` is 5.41 µM; for `Cc1cccc(NCC(=O)N/N=C\c2cccc(Oc3ccccc3)c2)c1` it is 8.02 µM (inactive); for `Cc1cccc(N=Nc2c(N)n[nH]c2-c2ccc(Cl)cc2)c1` it is 9.41 µM (inactive).
For the compound `Nc1cc(Cl)c2nonc2c1[N+](=O)[O-]`, the IC50 was 5.89 µM (inactive).
The figure for `CCOc1ccc(-c2nc(CSCC(=O)NCc3ccco3)c(C)o2)cc1` is under 0.16 µM.
`COc1ccc(-c2nc(NC(=O)Cn3ccc(C(F)(F)F)n3)sc2C)cc1`: the IC50 was > 10 µM (inactive).
As to `CCCCCCCn1c(=O)c(C(=O)Nc2cnccn2)c(O)c2ccccc21`, the IC50 is 3.68 µM.
The figure for `NC(=S)n1[nH]c(-c2ccc([N+](=O)[O-])cc2)c(N=Nc2ccc(Cl)cc2)c1=O` is 5.74 µM (inactive).
The figure for `CCc1ccc(/C=C2\SC(=S)N(CCCC(=O)Nc3ccccn3)C2=O)cc1` is 0.16 µM; for `COc1ccccc1C(=O)Oc1ccc(C(C)C)cc1` it is > 10 µM (inactive); for `CC(C)(C)OC(=O)N[C@@H](Cc1ccccc1)c1nnc(S(=O)(=O)Cc2ccccc2)o1` it is 5.59 µM (inactive).
The figure for `Oc1[nH]c2ccccc2c1N=NC(=S)NCCc1ccccc1` is 9.82 µM (inactive); for `COc1ccccc1NCC(O)COc1ccc(C(C)(C)C)cc1` (centres undefined) it is 9.32 µM (inactive).
Turning to `Nc1c(C(=O)Nc2ccccc2F)sc2nc(-c3cccnc3)ccc12`, the IC50 is > 10 µM (inactive).
Regarding `C=C(C)Cn1c(N2CCC(Cc3ccccc3)CC2)nc2c1c(=O)[nH]c(=O)n2C`, the IC50 was 8 µM (inactive).
In the case of `Cc1ccc(NC(=O)NC(=O)CN2C(=O)NC3(CCCCCCC3)C2=O)c(C)c1`, the IC50 is 9.53 µM (inactive).
Regarding `COc1cc(-c2nc3c(c(C)nn3-c3ccccc3)c3cc(OC)c(OC)cc23)ccc1O`, the IC50 is 9.85 µM (inactive).
Consider `Cn1c(=O)[nH]c(=O)c2[nH]c(N(Cc3ccccc3)Cc3ccccc3)nc21`, for which the IC50 was 6.18 µM (inactive).
Take `N=C(N)c1c(O)n(C2CCCCC2)c(=O)n(C2CCCCC2)c1=O`: the IC50 was 2.77 µM.
Consider `O=c1[nH]c2ccccc2n1C1CCN(CCCC(c2ccc(F)cc2)c2ccc(F)cc2)CC1`, for which the IC50 was 6.34 µM (inactive).
The figure for `COC(=O)c1cc(NC(=S)Nc2cc(Cl)cc(Cl)c2)cc(C(=O)OC)c1` is > 10 µM (inactive); for `Oc1ccc(/C=N/Nc2nc(-c3ccc(Cl)cc3)cc(C(F)(F)F)n2)cc1` it is 5.8 µM (inactive).
The figure for `Cc1ccc(-c2nnc(-c3ccc(NC(=O)Cc4cccs4)cc3)o2)cc1` is 8.41 µM (inactive).
Take `CC1=CC2/C=C(\C)CCC(O)C(O)/C=C/C(=O)C23C(=O)NC(CC(C)C)C3C1C` (centres undefined): the IC50 was 9.69 µM (inactive).
In the case of `CCCCS(=O)(=O)/C=C\C=C/S(=O)(=O)CCCC`, the IC50 is 2.12 µM.
For `N#CC1=C(N)N2C(=C(C#N)C1c1cccc(Br)c1)Nc1ccccc12` (centres undefined), the IC50 is 5.07 µM (inactive).
Regarding `O=C1C=CC(O)(c2cc(=O)c3c(O)cc(O)cc3o2)C=C1`, the IC50 was 2.58 µM.
On to `Cc1ccc(OCC(=O)N2N=C(C(F)(F)F)CC2(O)C(C)(C)C)cc1C` (centres undefined), for which the IC50 is 5.25 µM (inactive).
For the compound `CNC(=O)NC(=O)C(C)OC(=O)c1oc2ccccc2c1CSc1ccc(Cl)cc1` (centres undefined), the IC50 is > 10 µM (inactive).
As to `O=C(c1ccc(COc2ccc(Cl)cc2)o1)N1N=C(C(F)F)CC1(O)C(F)F` (centres undefined), the IC50 is 9.64 µM (inactive).
On to `Cc1ccc(C(=O)CC(=O)c2cc(Cl)ccc2O)cc1`, for which the IC50 was 5.51 µM (inactive).
On to `CCOc1cc(/C=N/NC(=O)COc2cccc(C)c2)ccc1OC(=O)c1cccs1`, for which the IC50 was > 10 µM (inactive).
The figure for `CCCCn1c(/N=C/c2c[nH]c3ccccc23)nc2ccccc21` is 6.06 µM (inactive); for `CC(C)(C)c1ccc(-c2noc(CCC(N)=O)n2)cc1` it is under 0.16 µM.
For the compound `COc1ccc(C(=O)NNC(=O)c2ccccn2)cc1`, the IC50 was 3.12 µM (inactive).
Regarding `CC(C)(C)c1ccc(-c2n[nH]c(=S)n2C2CCCC2)cc1`, the IC50 was 7.55 µM (inactive).
On to `CC1(C)C[C@H]2C=C(C=O)[C@]3(C=O)C[C@]3(C)[C@H]2C1`, for which the IC50 is 0.85 µM.
The figure for `Cc1[nH]n(-c2ccccc2)c(=O)c1/C=C1/C=c2ccccc2=N1` is 9.74 µM (inactive); for `CCOC(=O)c1c(-n2c(C)cc(C=C3C(=O)NC(=S)NC3=O)c2C)sc2c1CCCC2` it is 5.85 µM (inactive); for `CC(C)(C)c1ccc(NC(=O)Nc2ccc(F)cc2)cc1` it is > 10 µM (inactive).
Take `COC(=O)c1sc(-c2ccc(C(C)(C)C)cc2)cc1NC(=O)c1ccccc1C(=O)O`: the IC50 was 8.29 µM (inactive).
For `Cc1ccccc1CS(=O)(=O)c1nnc([C@H](CC(C)C)NC(=O)OC(C)(C)C)o1`, the IC50 is 4.63 µM.
Consider `O=C(Nc1ccc(Oc2ccccc2)cc1)C1CCN(c2c3c(nc4ncnn24)CCC3)CC1`, for which the IC50 was > 10 µM (inactive).
Regarding `COc1ccc2c(C)nc(Nc3nc(C)c(C)c(=O)[nH]3)nc2c1`, the IC50 is 9.72 µM (inactive).
As to `O=C(Nc1ccccc1Cl)/C(Cl)=C(\Cl)S(=O)c1ccccc1` (centres undefined), the IC50 was 2.4 µM.
For the compound `CCCCCCOC(=O)Nc1ccc(S(=O)(=O)Nc2cccc([N+](=O)[O-])c2)cc1`, the IC50 was > 10 µM (inactive).
With `Cc1cc(Cl)ccc1OCc1n[nH]c(=S)n1C1CCCCC1`, the IC50 was > 10 µM (inactive).

By IC50 is commonly meant the point on the concentration scale where inhibition reaches its midpoint.
